Laboratory results from US9290457B2, “Substituted dihydropyrimidinones and their use as inhibitors of neutrophil elastase activity” (Boehringer Ingelheim International GmbH, priority 2014, dated 2016).

Legend:
[1] = biological target: T1, neutrophil elastase (Homo sapiens (Human), UniProt P08246); experiment: Human Neutrophil Elastase Assay; assay type: biochemical; conditions: substrate MeOSuc-Ala-Ala-Pro-Val-AMC
Target sequence in this assay (P08246 30-247): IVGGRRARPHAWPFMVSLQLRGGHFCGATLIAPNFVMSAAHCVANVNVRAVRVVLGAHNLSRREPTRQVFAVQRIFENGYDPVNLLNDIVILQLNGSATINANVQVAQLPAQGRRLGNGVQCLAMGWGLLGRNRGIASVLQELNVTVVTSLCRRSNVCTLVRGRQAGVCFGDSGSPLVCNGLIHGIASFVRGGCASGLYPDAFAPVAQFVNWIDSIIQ

[2] = test system: human hepatocytes; experiment: Metabolic stability with human hepatocytes; assay type: in vitro ADME; conditions: 1 μM compound, well stirred model
Description: Assay for the Determination of Metabolic Stability with Human Hepatocytes
The metabolic degradation of the test compound is assayed in a human hepatocyte suspension. Human hepatocytes (typically cryopreserved) are incubated in an appropriate buffer system (e.g. Dulbecco's modified eagle medium plus 3.5 μg glucagon/500 mL, 2.5 mg insulin/500 mL and 3.75 mg/500 mL hydrocortison) containing 5% species serum. Following a (typically) 30 min preincubation in an incubator (37° C., 10% CO2), 5 μl of test compound solution (80 μM; from 2 mM stock solution in DMSO diluted 1:25 with medium) are added into 395 μl hepatocyte suspension (cell density in the range 0.25-5*10^6 cells/mL, typically 1*10^6 cells/mL; final concentration of test compound 1 μM, final DMSO concentration 0.05%). The cells are incubated for six hours (incubator, orbital shaker) and samples (25 μl) are taken at 0, 0.5, 1, 2, 4 and 6 hours. Samples are transferred into acetonitrile and pelleted by centrifugation (5 min) The supernatant is transferred to a new 96-deepwell plate, evaporated under nitrogen and resuspended. The decline of parent compound is analyzed by LC-MS/MS.
The intrinsic clearance CL_[…] is calculated as follows: CL_[…]=Dose/AUC=(Co/CD)/(AUD+clast/k)*1,000/60 (Co: initial concentration in the incubation [μM], CD: cell density of vital cells [10^6 cells/mL], AUD: area under the data [μM*h], clast: concentration of last data point [μM], k: slope of the regression line for parent decline [h^−1])
The calculated in vitro hepatic intrinsic clearance Q h can be scaled up to the intrinsic in vivo hepatic clearance and used to predict hepatic in vivo blood clearance (CL) by the use of a liver model (well stirred model): CL_[…]_INVIVO[ml/min/kg]=(CL_[…][μL/min/10^6cells]*hepatocellularity[10^6cells/g liver]*liver factor[g/kg bodyweight])/1,000 CL[ml/min/kg]=CL_[…]_INVIVO[ml/min/kg]*hepatic blood flow [ml/min/kg]/(CL_[…]_INVIVO[ml/min/kg]+hepatic blood flow[ml/min/kg]) Qh[%]=CL[ml/min/kg]/hepatic blood flow[ml/min/kg]) (Hepatocellularity, human: 120*10^6 cells/g liver; liver factor, human: 25.7 g/kg bodyweight; blood flow, human: 21 ml/(min*kg)) Based on this assay.
The calculated in vitro hepatic intrinsic clearance values of selected compounds in the metabolic stability assay with human hepatocytes described above are listed in Table 4.

[3] = Metabolic stability with human liver microsomes; assay type: in vitro ADME; conditions: pooled human liver microsomes, 1 μM compound, 37° C.; for half-life at 1 μM: pH 7.6, read-out: t1/2 INVITRO
Description: Assay for the Determination of Metabolic Stability with Human Liver Microsomes
The metabolic degradation of the test compound is assayed at 37° C. with pooled human liver microsomes. The final incubation volume of 100 μl per time point contains TRIS buffer pH 7.6 (0.1 M), magnesium chloride (5 mM), microsomal protein (1 mg/ml) and the test compound at a final concentration of 1 μM. Following a short preincubation period at 37° C., the reactions are initiated by addition of beta-nicotinamide adenine dinucleotide phosphate, reduced form (NADPH, 1 mM) and terminated by transferring an aliquot into acetonitrile after different time points. Additionally, the NADPH-independent degradation is monitored in incubations without NADPH, terminated at the last time point. The [%] remaining test compound after NADPH independent incubation is reflected by the parameter c(control) (metabolic stability). The quenched incubations are pelleted by centrifugation (10,000 g, 5 min) An aliquot of the supernatant is assayed by LC-MS/MS for the amount of parent compound.
The half-life (t1/2 INVITRO) is determined by the slope of the semilogarithmic plot of the concentration-time profile. The intrinsic clearance (CL_[…]) is calculated by considering the amount of protein in the incubation: CL_[…][μl/min/mg protein]=(ln 2/(half-life[min]*protein content[mg/ml]))*1,000.
The half-life (t1/2 INVITRO) values of selected compounds in the metabolic stability assay human liver microsomes described above are listed in Table 3.

[4] = biological target: T1, neutrophil elastase; experiment: Neutrophil elastase inhibitory activity in human plasma; assay type: biochemical; conditions: zymosan-stimulated human plasma, substrate MeOSuc-Ala-Ala-Pro-Val-AMC
Description: Assay for the Determination of Neutrophil Elastase Inhibitory Activity in Human Plasma
Citrated blood from human healthy donors is mixed with zymosan suspension and incubated at room temperature. This leads to the stimulation of neutrophils and the release of neutrophil elastase into the plasma. The stimulated blood is centrifuged to generate the neutrophil elastase enriched plasma.
Preparation of Zymosan Working Solution:
• A single 45 ml blood sample is taken into a 50 ml tube containing citrate (3.13%, 5 mL) and the tube is gently inverted 4 times. • Immediately after blood sampling, zymosan working solution (5 mL) is added. • After the addition of zymosan working solution, the tubes are capped, mixed gently and incubated at 22° C. for 15 min on a shaker at 20 rpm. • Make 10 ml aliquots after the incubation time. • Centrifuge the 15 ml tubes at 800 g for 15 min at 4° C. in a Jouan centrifuge. • Harvest the plasma and make 1-5 ml aliquots. • Store the plasma at −80° C.
Various concentrations of the neutrophil elastase inhibitor are incubated with plasma. Subsequently, the enzyme activity is measured using the fluorogenic substrate MeOSuc-Ala-Ala-Pro-Val-AMC (Bachem Cat. No. I-1270, substrate concentration: 250 μM, pH 7.5, 25 mM TRIS buffer, 250 mM NaCl) in analogous fashion as described for the human neutrophil assay. A dose response curve is generated to calculate the EC50 of the inhibitor. The analysis of the data is performed by the calculation of the percentage of fluorescence in the presence of the test compound compared to the fluorescence of the vehicle control after subtracting the background fluorescence: An inhibitor of the neutrophil elastase enzyme will give values between 100% control (no inhibition) and 0% control (complete inhibition).
Target sequence in this assay (P08246 30-267): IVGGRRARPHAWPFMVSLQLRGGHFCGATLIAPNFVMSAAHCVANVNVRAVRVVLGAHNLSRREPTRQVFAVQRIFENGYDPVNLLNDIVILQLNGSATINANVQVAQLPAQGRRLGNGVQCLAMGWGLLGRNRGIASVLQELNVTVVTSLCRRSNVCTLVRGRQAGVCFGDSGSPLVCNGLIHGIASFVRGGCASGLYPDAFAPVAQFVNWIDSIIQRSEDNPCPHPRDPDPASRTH

| SMILES | IC50 [1] | Qh [2] | t1/2 INVITRO [3] | EC50 [4] | half-life at 1 μM [3] |
| --- | --- | --- | --- | --- | --- |
| CC(=O)C1=C(C)N(c2cccc(C(F)(F)F)c2)C(=O)N(C)C1c1ccc(C#N)cc1C(=O)NCC(C)(C)O (centres unmarked) [Example 1.22] | 1.4 nM | 15% | – | 2 nM | > 2.17 h |
| CNC(=O)c1cc(C#N)ccc1[C@@H]1C(C(C)=O)=C(C)N(c2cccc(C(F)(F)F)c2)C(=O)N1C [Example 13.1] | < 1 nM | 16% | >2.17 h | 1 nM | – |
| CC(=O)C1=C(C)N(c2cccc(C(F)(F)F)c2)C(=O)N(C)[C@@H]1c1ccc(C#N)cc1-c1ccc(=O)n(C)c1 [Example 16, 4-[(R)-5-Acetyl-3,6-dimethyl-2-oxo-1-(3-trifluoromethyl-phenyl)-1,2,3,4-tetrahydro-pyrimidin-4-yl]-3-(1-methyl-6-oxo-1,6-dihydro-pyridin-3-yl)-benzonitrile] | < 1 nM | 5% | – | 1 nM | > 2.17 h |
| CC(=O)C1=C(C)N(c2cccc(C(F)(F)F)c2)C(=O)N(C)[C@@H]1c1ccc(C#N)cc1-c1ccn(C)c(=O)c1 [Example 17, 4-[(R)-5-Acetyl-3,6-dimethyl-2-oxo-1-(3-trifluoromethyl-phenyl)-1,2,3,4-tetrahydro-pyrimidin-4-yl]-3-(1-methyl-2-oxo-1,2-dihydro-pyridin-4-yl)-benzonitrile] | < 1 nM | 6% | – | 5 nM | > 2.17 h |

The remaining lines, values ahead:

| IC50 [1] | Qh [2] | t1/2 INVITRO [3] | EC50 [4] | half-life at 1 μM [3] | SMILES |
| --- | --- | --- | --- | --- | --- |
| < 1 nM | 25% | 2.17 h | 1 nM | – | CC(=O)C1=C(C)N(c2cccc(C(F)(F)F)c2)C(=O)N(C)C1c1ccc(C#N)cc1C(=O)NCC#N (centres unmarked) [Example 1.6] |
| < 1 nM | 22% | 1.83 h | 1 nM | – | CC(=O)C1=C(C)N(c2cccc(C(F)(F)F)c2)C(=O)N(C)C1c1ccc(C#N)cc1C(=O)NC1CC1 (centres unmarked) [Example 1.8] |
| < 1 nM | 27% | >2.17 h | 1 nM | – | CC(=O)C1=C(C)N(c2cccc(C(F)(F)F)c2)C(=O)N(C)C1c1ccc(C#N)cc1C(=O)NCCF (centres unmarked) [Example 1.10] |
| < 1 nM | 19% | – | 2 nM | 2 h | CC(=O)C1=C(C)N(c2cccc(C(F)(F)F)c2)C(=O)N(C)C1c1ccc(C#N)cc1C(=O)N1CCn2ncnc2C1 (centres unmarked) [Example 1.73] |
